Holding throughout (assay type): in vivo
Test [1] relates to Grape Downy Mildew organism Plasmopara viticola. In words: Grape Downy Mildew control, detached grape leaves. The note with it: held 7 to 9 days after 2 days incubation. How it is done: The compounds of the invention were tested for the control of the Grape Downy Mildew organism Plasmopara viticola. Detached leaves, between 70 mm and 85 mm in diameter, 7-week-old Vitis vinifera cultivar Emperor grape seedlings were used as hosts. The leaves were sprayed with a 250-ppm solution of the test compound in acetone. The sprayed leaves were dried, inoculated with a spore suspension of the organism, placed in a humid environmental chamber and incubated at 66° F. to 68° F. and about 100% relative humidity. After incubation for 2 days, the plants were then held in a greenhouse 7 to 9 days; then the amount of disease control was determined. The percent disease control provided by a given test compound was based on the percent disease reduction relative to untreated check plants.

In test [2] the test system is Tomato Late Blight organism Phytophthora infestans. The experiment in a line: whole plant or invertebrate.
Test [3] relates to Celery Late Blight organism Septoria apii. The experiment in a line: whole plant or invertebrate.
Test [4] concerns Tomato Early Blight organism Alternaria solani conidia. The experiment in a line: Tomato Early Blight control, tomato seedlings. The note with it: inoculated 1 day later, about 12 days. How it is done: Compounds of the invention were tested for the control of the Tomato Early Blight organism Alternaria solani conidia. Tomato (variety Bonny Best) seedlings of 6- to 7-weeks old were used. The tomato plants were sprayed with a 250-ppm solution of the test compound in an acetone-and-water solution containing a small amount of a nonionic emulsifier. The sprayed plants were inoculated 1 day later with the organism, placed in the environmental chamber and incubated at 66° F. to 68° F. and 100% relative humidity for 24 hours. Following the incubation, the plants were maintained in a greenhouse for about 12 days. Percent disease control was based on the percent disease development on untreated check plants.

Test [5] relates to Uromyces phaseoli tipica. In words: Leaf Rust (Bean Rust) control, pinto beans. The note with it: about 14 days. How it is done:
The Leaf Rust test was made using pinto beans. The pathogen was Uromyces phaseoli tipica. The pinto bean plants were sprayed with a 250-ppm solution of the test compound in an acetone-water mixture containing a nonionic emulsifier. The treated plants were inoculated thereafter with the pathogen and then incubated in an environmental chamber for approximately 20 hours at 100% relative humidity and a temperature of 68° F. to 70° F. The plants were then removed from the chamber, allowed to dry, and then maintained in a greenhouse at a 60% to 80% relative humidity. The rate of infection on the leaves was made after about 14 days. The percent disease control provided by a given test compound was based on the percent disease reduction relative to untreated check plants.

Test [6] has as its system Bean Powdery Mildew organism Erysiphe polygoni. In words: Bean Powdery Mildew control, seedling bean plants. The note with it: inoculated 1 day later, 10 days. How it is done: The compounds of the invention were tested for the control of the Bean Powdery Mildew organism Erysiphe polygoni. Seedling bean plants were sprayed with a 250-ppm solution of the test compound in acetone, water and a nonionic emulsifier. The sprayed plants were then inoculated 1 day later with the organism. The plants were maintained for 10 days at temperatures of 68° F. at night with daytime temperatures of 72° F. to 80° F.; relative humidity was maintained at 40% to 60%. The percent disease control provided by a given test compound was based on the percent disease reduction relative to the untreated check plants.

Test [7] concerns Rice Blast organism Piricularia oryzae. In words: whole plant or invertebrate.

The structures appear in SMILES notation.

The values below come from patent publication US4661494A (priority 1985, dated 1987).

Turning to `CCCN(CC(=O)Nc1c(Cl)cc(Cl)cc1Cl)C(=O)c1cccnc1` [Compound 1, N-(2,4,6-trichlorophenyl), N'-(n-propyl), N'-(3-pyridylcarbonyl) glycinamide], the activity at 250 ppm in test [1] (Plasmopara viticola, in Vitis vinifera, read-out: Fungicidal Activity % Control GDM) was 3%; in test [2] (Phytophthora infestans, read-out: Fungicidal Activity % Control TLB) it was 0%; in test [3] (336 h, read-out: Fungicidal Activity % Control CLB), 50%; in test [4] (Alternaria solani, read-out: Fungicidal Activity % Control TEB), 85%; in test [5] (Uromyces phaseoli, 336 h, read-out: Fungicidal Activity % Control BR), 4%; in test [6] (Erysiphe polygoni, read-out: Fungicidal Activity % Control BPM), 100%. In addition, in test [7] (Pyricularia oryzae, read-out: Fungicidal Activity % Control RB), the activity at 625 ppm was 0%.

`CCCN(CC(=O)Nc1c(C)cccc1C)C(=O)c1cccnc1` [Compound 2, N-(2,6-dimethylphenyl)-N'-(n-propyl), N'-(3-pyridylcarbonyl) glycinamide]: in test [1] (250 ppm, detached Vitis vinifera leaves), the “Fungicidal Activity % Control GDM” value is listed as 7%. For the same molecule, the “Fungicidal Activity % Control TLB” value in test [2] (250 ppm, tomato, inoculated 1 day later, approximately 7 days) stood at 10%. For the same molecule, the “Fungicidal Activity % Control CLB” value in test [3] (250 ppm, celery (Utah), approximately 14 days) is reported as 58%. Besides, the “Fungicidal Activity % Control TEB” value in test [4] (250 ppm) came to 22%. Besides, the “Fungicidal Activity % Control BR” value in test [5] (250 ppm) is reported as 0%. Moreover, the “Fungicidal Activity % Control BPM” value in test [6] (250 ppm) amounted to 53%. In test [7] (625 ppm, rice (Calrose M-9), inoculated 1 day later, about 12 to 16 days), the “Fungicidal Activity % Control RB” value stood at 0%.
